Data published in patent US20100279935A1, “COMPOSITIONS FOR INDUCING LABOR AND ASSOCIATED METHODS” (priority 2007, published 2010).
“Also recorded” adds a separate entry of the source.

Columns and labels:
Type in all cases: cell-based, human
[1] = system: myosin light chain phosphorylation (Ser19) in hTERT cells; test: Western blot for phosphorylated myosin light chain at Ser19
Protocol: (§1) Telomerase immortalized myometrial cells (hTert) were maintained in DMEM/F12 (Mediatech) medium with 10% FBS (Hyclone) with penicillin/streptomycin and gentamycin at 37° C. and 5% CO2. Cells were trypsinized at 90% confluency and plated in T175 cell culture flasks at a 1:5 dilution or 6 well plates at 20,000 cells per well. For pharmacological experiments cells were treated with iodo-melatonin (Tocris; USA), oxytocin (Sigma-Aldrich; USA) or cotreated as described in the Results. Pharmacological inhibitors, 4-phenyl-2-propionamidotetralin (4P-PDOT), a MT2R specific antagonist, the general PKC inhibitor C1, and the phospholipase C inhibitor, U73122 (all from Tocris) were applied as a pretreatment 1 hr prior to application of IMEL or OT. After treatment the cells were trypsinized, pelleted, washed in phosphate-buffered saline, and frozen at −20° C. until further analysis.
For in vitro investigations cultured hTERT cells were collected by trypsinization and gentle scraping. Cells were suspended in PBS and pelleted by centrifugation. Protein extraction was performed according to the method of Shearman and colleagues^15. Following electrophoretic separation on a 10% SDS-polyacrylamide gel, proteins were semi-dry blotted in buffer onto a Whatman PROTRAN Nitrocellulose membrane (Whatman; Germany). Molecular size markers (Amersham) were included. The membrane was incubated for 60 min at 20° C. in blocking buffer containing 5% milk powder before overnight incubation at 4° C. with anti-OTR, anti-MT2R (Santa Cruz Biotechnology), anti-Cx43 antiserum (Millipore) or anti-actin (Sigma) at a dilution of 1:1000 in blocking buffer. Following washing in buffer (20 mM Tris, pH 7.6+[…] NaCl+0.05% Tween-20), the membrane was incubated at 20° C. for 1 h with a peroxidase-conjugated affinity purified goat anti-rabbit immunoglobulin (Sigma) in a 1:2000 dilution. Chemiluminescent signals were then detected with the Pierce ECL Western Blotting Substrate (Pierce; USA) using CL-X Posure film (Pierce). Western blotting for phospho-myosin light chain kinase (Ser19) (Millipore) was performed with the following exceptions. Membranes were blocked with a 5% BSA/TBS solution for one hour. The primary antibody was diluted in TBS at a 1:500 dilution at 4° C. overnight with shaking. The goat anti-rabbit immunoglobulin was diluted 1:2000 in a 5% milk/TBST solution. Densitometric analysis was performed using AIS Image Analysis software (Ontario, Canada) of images acquired with a digital camera. Criterion for assessment of samples as immunonegative was the absence of a band after 1 hr of exposure. Western blots were repeated a minimum of three times to insure reproducibility.

[2] = system: connexin 43 mRNA in hTERT cells; test: Quantitative PCR of Cx43 mRNA; conditions: for effect of inhibitor on I-MEL-induced Cx43 expression: co-treatment with I-MEL (FIG. 3C)
Protocol: as §1
Cellular total RNA was extracted with the RNEasy® kit (QIAGEN; Valencia, Calif., USA) according to the manufacturer's protocol. The RNA concentration was measured with the Nanodrop® photometer and then reverse transcribed to cDNA by means of the iScript® reverse transcription system (Bio-Rad Laboratories; USA). Quantitative real-time PCR was performed on a Bio-Rad iCycler® using iQ SYBR Green Supermix® (Bio-Rad), together with 1 μl of sense and antisense primers ([…]) of the transcript of interest and 2 μl of template cDNA. The following thermal cycling parameters were used: initial heat activation of the DNA-polymerase was performed at 95° C. for 5 min. Thereafter 40 cycles at 95° C. (15 sec), 58° C. (30 sec), and 72° C. (30 sec) were run. After thermocycling the iCycler performs an automatic melting curve, which entails cooling to 55° C. for 10 sec and then increasing temperatures in 0.2° C. increments up to 90° C. This controls for primer-dimer formation and other nonspecific effects. Quantification of the data was achieved by the Bio-Rad iCycler software using a standard curve from a primer-specific dilution series for the PCR product. Data were normalized against expression of the housekeeping gene glyceraldehyde-3-phosphate dehydrogenase (GAPDH). The primer sequences used for Cx43, and GAPDH quantification are as follows: […]

[3] = system: hTERT myometrial smooth muscle cells; test: Myometrial cell contractility assay (collagen disk retraction); conditions: for effect of inhibitor on contractility of cells treated with OT, I-MEL or both: pretreatment 1 hr, 4P-PDOT 10 nM, C1 10 μM, U73122 concentration not given
Protocol: as §1
Myometrial cell contractility was assayed using a collagen disk retraction assay as described by Devost and Zingg^16 plating 10,000 hTERT cells per well. Samples were treated as described in the Results and each treatment was performed in triplicate. Myometrial cell contractility was quantified by capturing images of the fixed collagen disks with a digital camera and analyzing for total area using AIS Image Analysis Software (Ontario, Canada). The results were normalized to the cell-free control sample areas and expressed as a percentage of untreated control area.

[4] = system: gap junction communication in hTERT cells; test: Lucifer yellow dye migration (scrape loading) assay
Protocol: Lucifer yellow scrape loading assays were performed in accordance with the procedures of El-Fouly et al^17. Cells were grown to confluency in […] cell culture dishes, washed with warm phosphate buffered saline (PBS) and treated with 2 mL of pre-warmed 0.05% lucifer yellow in PBS solution. The cells were then scraped by drawing a scalpel across the plate. After two minutes at room temperature the plates were washed three times with prewarmed PBS and returned to normal medium. The plates were then photographed at 10 minutes after scraping using a digital camera through a Zeiss Axiovert 40CFL Microscope at a 100× and 200× magnification. Each treatment condition was repeated three times to ensure reproducibility.

[5] = system: connexin 43 protein in hTERT cells; test: Western blot of Cx43 protein; conditions: I-MEL-treated hTERT cells (FIG. 3B)
Protocol: as §1
For in vitro investigations cultured hTERT cells were collected by trypsinization and gentle scraping. Cells were suspended in PBS and pelleted by centrifugation. Protein extraction was performed according to the method of Shearman and colleagues^15. […] Chemiluminescent signals were then detected with the Pierce ECL Western Blotting Substrate (Pierce; USA) using CL-X Posure film (Pierce). […]

## CCC(=O)NC1Cc2ccccc2C(c2ccccc2)C1 (centres unmarked) [4P-PDOT, 4-phenyl-2-propionamidotetralin]
[1]; 10 nM 4P-PDOT or 10 μM C1 pretreatment
  effect of inhibitor pretreatment on I-MEL-induced myosin light chain phosphorylation: abolished
[2]
  effect of inhibitor on I-MEL-induced Cx43 expression: abolished the effect of I-MEL on Cx43 expression
[3]
  effect of inhibitor on contractility of cells treated with OT, I-MEL or both: reduced the synergistic effect of I-MEL to levels corresponding to treatment with OT alone
[4]; 10 nM 4P-PDOT or 10 μM C1 before I-MEL
  effect of inhibitor pretreatment on I-MEL-increased dye spread: blocked
[4]; 4P-PDOT or C1 alone, data not shown
  dye migration, inhibitor alone: dye migration comparable to control levels

## COc1ccc2[nH]c(I)c(CCNC(C)=O)c2c1 [I-MEL, iodo-melatonin]
[1]; 1 nM I-MEL with OT, hTERT cells (FIG. 2D)
  effect of I-MEL on OT-induced myosin light chain phosphorylation: increased dramatically
[1]; 1 nM I-MEL, hTERT cells (FIG. 2D)
  myosin light chain phosphorylation, I-MEL treatment alone: modest increases in myosin light chain phosphorylation
[2]; 1 nM I-MEL, 4 hrs, hTERT cells
  Cx43 mRNA levels after 4 hrs: significant, but transient increases; also recorded: elevated
[2]; 1 nM I-MEL, 8 hrs, hTERT cells
  Cx43 mRNA levels after 8 hrs: returned to untreated levels
[3]; co-treatment 1 nM I-MEL and 1 nM OT, hTERT cells
  increase in contractility compared to treatment with OT alone: two-fold
[3]; hTERT cells, I-MEL without OT
  contractility by I-MEL alone: modest increases in hTERT contractility
[3]; hTERT cells, OT co-treated with I-MEL (FIG. 2A)
  effect of I-MEL on OT-induced contractility and sensitivity to OT: increase OT-induced contractility in a dose dependent manner
[4]; 1 nM I-MEL pretreated hTERT cells, 10 minutes after scrape loading
  cell coupling / spread of lucifer yellow dye: increased levels of cell coupling
[5]
  Cx43 protein levels: upregulation of Cx43 protein levels

## CC[C@H](C)[C@@H]1NC(=O)[C@H](Cc2ccc(O)cc2)NC(=O)[C@@H](N)CSSC[C@@H](C(=O)N2CCC[C@H]2C(=O)N[C@@H](CC(C)C)C(=O)NCC(N)=O)NC(=O)[C@H](CC(N)=O)NC(=O)[C@H](CCC(N)=O)NC1=O [OT, oxytocin]
[1]; OT, hTERT cells (FIG. 2D)
  myosin light chain phosphorylation, OT treatment: increases

## COc1ccc2c(c1)CC[C@@H]1[C@@H]2CC[C@]2(C)[C@@H](NCCCCCCN3C(=O)C=CC3=O)CC[C@@H]12 [U73122]
[2]
  effect of inhibitor on I-MEL-induced Cx43 expression: abolished the effect of I-MEL on Cx43 expression
[3]
  effect of inhibitor on contractility of cells treated with OT, I-MEL or both: completely abolished contractility
